From patent US20110269812A1, “NOVEL BENZYLIDENE-INDOLINONE AND THEIR MEDICAL AND DIAGNOSTIC USES” (Agency for Science, Technology and Research, priority 2008, published 2011)
Like-named read-outs stand apart in the source and are kept apart here.

Tests used:
EGFR = biological target: T1, EGFR (Homo sapiens, UniProt P00533); assay type: cell-based; details: 24 h, untreated 0.15
T1 construct: Cells treated similarly were immunoprecipitated with anti-EGFR, anti-EphA2 and anti-Tyro3; endogenous in cells; host or cells: HuH7
T1 sequence (P00533 25-1210): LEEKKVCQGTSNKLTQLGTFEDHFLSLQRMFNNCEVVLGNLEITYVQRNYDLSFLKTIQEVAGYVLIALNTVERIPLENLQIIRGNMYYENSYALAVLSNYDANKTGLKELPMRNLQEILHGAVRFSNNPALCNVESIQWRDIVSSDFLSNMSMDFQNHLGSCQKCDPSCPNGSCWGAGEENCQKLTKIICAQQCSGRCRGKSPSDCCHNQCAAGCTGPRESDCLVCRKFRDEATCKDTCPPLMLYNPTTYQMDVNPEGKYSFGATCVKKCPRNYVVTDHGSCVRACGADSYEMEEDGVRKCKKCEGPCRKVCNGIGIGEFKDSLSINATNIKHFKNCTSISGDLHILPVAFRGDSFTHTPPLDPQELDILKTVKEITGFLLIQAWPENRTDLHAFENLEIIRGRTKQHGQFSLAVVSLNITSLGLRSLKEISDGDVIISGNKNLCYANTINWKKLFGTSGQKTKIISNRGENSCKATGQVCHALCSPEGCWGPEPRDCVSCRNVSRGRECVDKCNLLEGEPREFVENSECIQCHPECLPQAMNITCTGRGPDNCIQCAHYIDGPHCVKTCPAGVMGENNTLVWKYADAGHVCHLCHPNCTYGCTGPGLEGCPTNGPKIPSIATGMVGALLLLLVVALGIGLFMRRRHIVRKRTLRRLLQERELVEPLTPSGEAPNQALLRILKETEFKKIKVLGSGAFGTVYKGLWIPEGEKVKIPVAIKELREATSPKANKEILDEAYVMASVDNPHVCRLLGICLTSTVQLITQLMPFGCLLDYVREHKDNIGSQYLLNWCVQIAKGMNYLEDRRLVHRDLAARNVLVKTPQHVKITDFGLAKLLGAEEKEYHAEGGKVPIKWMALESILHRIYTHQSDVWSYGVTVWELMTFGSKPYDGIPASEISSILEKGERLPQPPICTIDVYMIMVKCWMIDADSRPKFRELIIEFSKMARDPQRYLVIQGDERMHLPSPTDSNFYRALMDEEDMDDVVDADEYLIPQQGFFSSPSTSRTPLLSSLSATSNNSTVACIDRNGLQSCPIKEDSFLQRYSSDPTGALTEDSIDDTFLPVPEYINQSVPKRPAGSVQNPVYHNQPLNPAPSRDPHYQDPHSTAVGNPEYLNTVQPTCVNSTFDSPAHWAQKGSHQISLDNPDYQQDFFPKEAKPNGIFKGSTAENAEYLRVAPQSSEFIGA
Experimental: (§1) Kinase phosphorylation changes were determined with human phospho-RTK array.
(§2) Cells harvesting, hybridization with RTK array and incubation with anti-phosphotyrosine were performed according to manufacturer's instruction. Imaging and quantification of the spots intensities was with Fujifilm LAS-3000 (Tokyo, Japan). Average signal of the duplicate spots for each RTK was determined.

Tyro3 [1] = biological target: T2, Tyro3 (Homo sapiens, UniProt Q06418); assay: Immunoprecipitation / anti-phosphotyrosine blot of Tyro3 in HuH7; assay type: cell-based; details: HuH7, 24 h; Compound 47 1, 5 or 10 μM, sunitinib 10 μM
T2 construct: we examined the constitutively phosphorylated IGF-1R, EphA2 and Tyro3; endogenous in cells; host or cells: HuH7
T2 sequence (Q06418 41-890): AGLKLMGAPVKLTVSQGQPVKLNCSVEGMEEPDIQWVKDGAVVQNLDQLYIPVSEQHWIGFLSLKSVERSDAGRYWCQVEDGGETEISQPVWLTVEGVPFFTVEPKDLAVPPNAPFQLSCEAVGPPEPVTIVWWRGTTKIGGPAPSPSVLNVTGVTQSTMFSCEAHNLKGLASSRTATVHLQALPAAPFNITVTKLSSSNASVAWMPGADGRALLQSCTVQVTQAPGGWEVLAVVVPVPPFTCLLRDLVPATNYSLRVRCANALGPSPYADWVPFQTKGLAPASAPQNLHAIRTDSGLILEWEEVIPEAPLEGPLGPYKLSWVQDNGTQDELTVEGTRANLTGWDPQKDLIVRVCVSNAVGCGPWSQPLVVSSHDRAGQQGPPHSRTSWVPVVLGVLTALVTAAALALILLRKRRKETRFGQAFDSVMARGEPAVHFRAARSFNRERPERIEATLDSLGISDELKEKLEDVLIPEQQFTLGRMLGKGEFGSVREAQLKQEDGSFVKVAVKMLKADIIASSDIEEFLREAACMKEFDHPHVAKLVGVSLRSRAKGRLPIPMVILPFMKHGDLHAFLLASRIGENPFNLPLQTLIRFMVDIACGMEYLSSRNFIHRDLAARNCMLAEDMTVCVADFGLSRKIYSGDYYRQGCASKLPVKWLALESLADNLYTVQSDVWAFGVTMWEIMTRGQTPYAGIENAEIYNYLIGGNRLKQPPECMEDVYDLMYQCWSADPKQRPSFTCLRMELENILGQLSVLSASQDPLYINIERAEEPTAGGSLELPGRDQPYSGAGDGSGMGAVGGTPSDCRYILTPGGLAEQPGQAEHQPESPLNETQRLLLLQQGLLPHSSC

Hs817T = assay: Cell Titer-Glo viability, Hs817T; assay type: cell-based, human; details: 5 μM
Experimental: (§3) The efficacy of compound 47 against HCC proliferation was tested on a wider panel of HCC cell lines: Hep3B ([…]), Hs817T (▪), PLC/PRF/5 (▴) and SK-Hep 1 (▾), as determined by Cell Titer-Glo assay.
(§4) Cells were plated at 5000-7000 cells/per well and incubated for 24 h before treatment. […] Cell Titer-Glo (Promega, Madison, Wis.) assay was performed according to manufacturer's instruction with luminescence detected on SpectraMax M5 (Molecular Devices, Sunnyvale, Calif.). Data was expressed as percentage of viability vs. vehicle-treated controls.
(§5) Accordingly, Compound 47 was screened against a larger panel of 4 additional HCC cell lines.

[2] = system: phospho-Erk, phospho-Akt, PCNA, cyclin D1, cleaved PARP, Bax, Bcl-xL; assay: Immunoblot of signalling, cell cycling and apoptosis markers in HuH7 or HepG2; assay type: cell-based, human; details: HuH7 or HepG2, 0, 1, 5 or 10 μM, 24 h
Experimental: HuH7 or HepG2 cells were treated with increasing concentration of Compound 47 (0, 1, 5 or 10 μM) for 24 h. Cell lysates were harvested and immunoblotted against cleaved PARP, phospho-Erk, phospho-Akt, PCNA, cyclin D1, Bax and Bcl-xL, with HSP60 as loading control.
Protein concentrations were assayed by BCA method (Pierce, Rockford, Ill.). Samples were resolved using 6-10% SDS-PAGE and transferred to nitrocellulose or PVDF membranes by tank transfer. Immunodetection was by chemiluminescence (SuperSignal, Pierce) using specific antibodies diluted in PBS with 0.05% (v/v) Tween 20 and 5% (w/v) powdered milk or BSA. Anti-phospho-IGF-1R, anti-phospho-EphA2, anti-phospho-Erk, anti-phospho-Akt, anti-Bax, anti-BCL-xL were from Cell Signaling Technology (Beverly, Mass.); anti-PCNA and anti-HSP60 from Santa Cruz Biotechnology (Santa Cruz, Calif.); anti-cyclin-D1 from BD Pharmingen (San Jose, Calif.). Secondary antibodies were anti-mouse and anti-rabbit HRP-conjugated antibodies (Pierce).
(§6) Next, the mechanism of Compound 47's anti-proliferative effects was investigated. […] However, there was little effect on the mitochondrial apoptotic players Bax and BCL-xL.

[3] = system: Hep3B, Hs817T, PLC/PRF/5 and SK-Hep 1; assay: Cell Titer-Glo viability, panel of 4 additional HCC cell lines; assay type: cell-based, human
Experimental: as §3, §4, §5

caspase-3 = assay: Caspase-3 activity assay in HuH7 and HepG2; assay type: cell-based, human; details: HuH7 and HepG2, 24 h, Ac-DEVD-AMC hydrolysis
Experimental: HuH7 (darker bar) and HepG2 (lighter bar) cells treated as described in FIG. 4 were harvested for caspase-3 assay performed by the catalytic hydrolysis of fluorogenic Ac-DEVD-AMC. Results were expressed as a normalized RFU per μg lysate per h of incubation with the AMC substrate (n=3).
Cells were subjected to Compound 47 treatment for 24 h prior to harvesting. Caspase-3 activities were determined by as previously described (Ho HK, Pok S, Streit S, Ruhe J E, Hart S, Lim K S, et al. Fibroblast growth factor receptor 4 regulates proliferation, anti-apoptosis and alpha-fetoprotein secretion during hepatocellular carcinoma progression and represents a potential target for therapeutic intervention. J Hepatol 2009 January; 50(1):118-127). Data were expressed as RFU/μg lysate/h incubation and error bars in terms of SD with n=3.
as §6

Tyro3 [4] = biological target: T2, Tyro3; assay: Human phospho-RTK array, HuH7: Tyro-3; assay type: cell-based; details: 24 h, untreated 0.15
Experimental: as §1, §2

Met = biological target: T3, Met (Homo sapiens, UniProt P08581); assay: Human phospho-RTK array, HuH7: Met; assay type: cell-based; details: 24 h, untreated 0.05
T3 construct: endogenous in cells; host or cells: HuH7
T3 sequence (P08581 25-1390): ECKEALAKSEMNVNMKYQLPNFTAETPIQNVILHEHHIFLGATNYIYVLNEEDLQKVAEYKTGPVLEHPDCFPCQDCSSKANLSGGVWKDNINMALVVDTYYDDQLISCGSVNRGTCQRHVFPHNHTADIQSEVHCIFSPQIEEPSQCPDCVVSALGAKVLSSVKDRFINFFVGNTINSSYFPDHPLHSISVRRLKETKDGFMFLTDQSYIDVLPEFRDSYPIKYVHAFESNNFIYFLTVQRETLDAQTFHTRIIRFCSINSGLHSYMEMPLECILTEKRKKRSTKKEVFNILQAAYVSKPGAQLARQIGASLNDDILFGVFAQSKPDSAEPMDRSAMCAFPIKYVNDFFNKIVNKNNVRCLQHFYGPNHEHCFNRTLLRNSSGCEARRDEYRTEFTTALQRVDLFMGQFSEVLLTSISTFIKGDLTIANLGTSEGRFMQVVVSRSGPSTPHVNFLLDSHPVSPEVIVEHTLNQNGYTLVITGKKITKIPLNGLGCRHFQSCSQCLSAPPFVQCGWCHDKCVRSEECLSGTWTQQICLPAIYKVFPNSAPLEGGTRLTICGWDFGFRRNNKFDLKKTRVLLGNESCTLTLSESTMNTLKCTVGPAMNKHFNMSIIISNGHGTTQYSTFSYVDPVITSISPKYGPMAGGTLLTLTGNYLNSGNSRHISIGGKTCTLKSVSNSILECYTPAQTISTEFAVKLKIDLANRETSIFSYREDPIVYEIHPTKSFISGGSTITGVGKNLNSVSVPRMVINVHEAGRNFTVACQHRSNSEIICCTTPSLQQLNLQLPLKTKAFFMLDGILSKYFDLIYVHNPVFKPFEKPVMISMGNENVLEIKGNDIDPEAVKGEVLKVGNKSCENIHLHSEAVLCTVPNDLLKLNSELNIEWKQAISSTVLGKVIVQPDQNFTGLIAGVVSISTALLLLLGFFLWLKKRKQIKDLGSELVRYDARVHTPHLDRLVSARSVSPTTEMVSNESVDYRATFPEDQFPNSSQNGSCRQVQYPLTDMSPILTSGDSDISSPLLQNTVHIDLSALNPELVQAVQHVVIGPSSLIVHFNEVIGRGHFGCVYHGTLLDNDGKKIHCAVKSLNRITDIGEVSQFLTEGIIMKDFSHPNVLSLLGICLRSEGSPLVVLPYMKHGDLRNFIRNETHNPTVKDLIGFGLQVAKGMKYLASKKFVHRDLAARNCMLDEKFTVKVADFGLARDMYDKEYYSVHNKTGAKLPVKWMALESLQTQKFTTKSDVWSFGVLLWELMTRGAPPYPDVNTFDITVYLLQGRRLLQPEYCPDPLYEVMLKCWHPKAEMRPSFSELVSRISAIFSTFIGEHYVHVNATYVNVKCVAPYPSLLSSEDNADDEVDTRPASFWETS
Experimental: as §1, §2

O=C1Nc2cc(Cl)ccc2/C1=C\c1cccc(C(F)(F)F)c1 [Compound 47, (E)-6-Chloro-3-(3-(trifluoromethyl)benzylidene)indolin-2-one]
EGFR Phosphorylation (EGFR; serum starved HuH7, 1 μM): 0.19 Arbitrary units | EGFR Phosphorylation (EGFR; serum starved HuH7, 5 μM): 0.44 Arbitrary units | EGFR Phosphorylation (EGFR; serum starved HuH7, 10 μM): 0.53 Arbitrary units | Tyro3 phosphorylation by immunoblot (Tyro3 [1]): inhibited even at the lowest concentration used (1 μM) | viability Hs817T (Hs817T): undetectable viability | Bax and BCL-xL (mitochondrial apoptotic players) [2]: little effect | Erk and Akt phosphorylation [2]: dose-dependent inhibition | cleaved PARP (apoptotic marker) [2]: confirmed the participation of pro-apoptotic mechanism | cyclin-D1 and PCNA expression (cell cycling markers) [2]: corresponding reduction | IC50 in 3 of the 4 additional HCC cell lines tested [3]: low micromolar or submicromolar | caspase-3 activity (caspase-3): activation | Tyro-3 Phosphorylation (Tyro3 [4]; serum starved HuH7, 1 μM): 0.10 Arbitrary units | Tyro-3 Phosphorylation (Tyro3 [4]; serum starved HuH7, 5 μM): 0.11 Arbitrary units | Tyro-3 Phosphorylation (Tyro3 [4]; serum starved HuH7, 10 μM): 0.07 Arbitrary units | Met Phosphorylation (Met; serum starved HuH7, 1 μM): 0.08 Arbitrary units | Met Phosphorylation (Met; serum starved HuH7, 5 μM): 0.05 Arbitrary units | Met Phosphorylation (Met; serum starved HuH7, 10 μM): 0.02 Arbitrary units
